Test results published in patent US11753407B2, “Compounds for treating spinal muscular atrophy” (PTC Therapeutics, Inc., priority 2012, dated 2023).

How the values were obtained:
[1] = test system: SMN2 minigene mRNA (SMN2-A minigene) in HEK293H cells; test: SMN2 minigene mRNA splicing RT-qPCR assay in cultured cells; format: cell-based, human; details: Homo sapiens, HEK293-H; concentration increasing full length SMN2 mRNA 1.5-fold relative to vehicle-treated cells; HEK293H cells with SMN2-A minigene, 24 hours, 7-point concentration data; read-out: EC1.5x for production of full length SMN2 mRNA
Method in brief: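 Read-out: minigene-specific full-length (exon 7-included) SMN2 mRNA by one-step multiplex RT-qPCR, normalized to GAPDH and divided by vehicle-treated level. Stable SMN2-A minigene HEK293H cells, 24 h compound exposure, 7 concentrations in duplicate. EC1.5× = concentration raising FL mRNA 1.5-fold.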

[2] = test system: Smn protein in SMA patient fibroblast cells (GM03813); test: Smn protein assay in cultured cells (SMN HTRF); format: cell-based, human; details: SMA patient fibroblast cells, 48 hours; for EC1.5x for Smn protein expression: 7-point concentration curve, SMN HTRF, concentration producing 1.5 times Smn protein vs DMSO vehicle control; for maximum fold (Fold) increase of Smn protein: 7-point concentration data, fold relative to vehicle control
Method in brief: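 Read-out: HTRF 665/620 nm ratio, blank-subtracted as ΔF, then expressed as fold over DMSO vehicle. Fibroblasts from SMA patients were exposed to compounds for 48 h (7 points, 3.16-fold steps, triplicates). Values are EC1.5× and maximum fold Smn increase.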

| SMILES | melting point [°C] | EC (1.5-fold increase) [1] [µM] | EC1.5x for Smn protein expression [2] | maximum fold (Fold) increase of Smn protein [2] |
| --- | --- | --- | --- | --- |
| Cc1cn2cc(-c3cc(=O)n4cc(N5CCN[C@@H](C)C5)ccc4n3)nc2c(C)n1 [Compound 119, 2-(6,8-dimethylimidazo[1,2-a]pyrazin-2-yl)-7-[(3S)-3-methylpiperazin-1-yl]-4H-pyrido[1,2-a]pyrimidin-4-one] | 202 to 208 | 0.1 to 0.3 | *** (an EC1.5× between >0.3 μM and ≤1 μM is indicated by three stars (***)) | ***** (a fold increase >1.65 is indicated by five stars (*****)) |
| Cc1cn2nc(-c3cc(=O)n4cc(N5CCN[C@@H](C)C5)ccc4n3)cc2c(C)n1 [Compound 121, 2-(4,6-dimethylpyrazolo[1,5-a]pyrazin-2-yl)-7-[(3S)-3-methylpiperazin-1-yl]-4H-pyrido[1,2-a]pyrimidin-4-one] | 192 to 194 | < 0.1 | **** (an EC1.5x≤0.3 μM is indicated by four stars (****)) | ***** (a fold increase >1.65 is indicated by five stars (*****)) |
| COc1ccc(-c2cc(=O)n3cc(-c4ccnc(C)c4)ccc3n2)cc1OC [Compound 122, 2-(3,4-dimethoxyphenyl)-7-(2-methylpyridin-4-yl)-4H-pyrido[1,2-a]pyrimidin-4-one] | 197 to 200 | 1 to 3 |  | *** (a fold increase between >1.35 and ≤1.5 is indicated by three stars (***)) |
| COc1ccc(-c2cc(=O)n3cc(N4C[C@H]5CNC[C@H]5C4)ccc3n2)cc1OC [Compound 126, 2-(3,4-dimethoxyphenyl)-7-[(3aR,6aS)-hexahydropyrrolo[3,4-c]pyrrol-2(1H)-yl]-4H-pyrido[1,2-a]pyrimidin-4-one] | 286 to 290 | 0.1 to 0.3 |  | ** (a fold increase between >1.2 and ≤1.35 is indicated by two stars (**)) |
| COc1ccc(-c2cc(=O)n3cc(N4CCC(N)CC4)ccc3n2)cc1OC [Compound 127, 7-(4-aminopiperidin-1-yl)-2-(3,4-dimethoxyphenyl)-4H-pyrido[1,2-a]pyrimidin-4-one] | 182 to 185 | 0.3 to 1 | * (An EC1.5× for Smn protein expression between >3 μM and ≤10 μM is indicated by one star (*)) | *** (a fold increase between >1.35 and ≤1.5 is indicated by three stars (***)) |
| Cn1ccc2cc(-c3cc(=O)n4cc(N5CCNCC5)ccc4n3)cnc21 [Compound 129, 2-(1-methyl-1H-pyrrolo[2,3-b]pyridin-5-yl)-7-(piperazin-1-yl)-4H-pyrido[1,2-a]pyrimidin-4-one] | 230 to 233 | 0.3 to 1 | * (An EC1.5× for Smn protein expression between >3 μM and ≤10 μM is indicated by one star (*)) | *** (a fold increase between >1.35 and ≤1.5 is indicated by three stars (***)) |
| C[C@@H]1CN(c2ccc3nc(-c4cnc5c(ccn5C)c4)cc(=O)n3c2)C[C@H](C)N1 [Compound 130, 7-[(3R,5S)-3,5-dimethylpiperazin-1-yl]-2-(1-methyl-1H-pyrrolo[2,3-b]pyridin-5-yl)-4H-pyrido[1,2-a]pyrimidin-4-one] | 265 to 268 | 1 to 3 | * (An EC1.5× for Smn protein expression between >3 μM and ≤10 μM is indicated by one star (*)) | *** (a fold increase between >1.35 and ≤1.5 is indicated by three stars (***)) |
| Cc1nc2ccc(-c3cc(=O)n4cc(N5CCN[C@@H](C)C5)ccc4n3)cc2o1 [Compound 134, 2-(2-methyl-1,3-benzoxazol-6-yl)-7-[(3S)-3-methylpiperazin-1-yl]-4H-pyrido[1,2-a]pyrimidin-4-one] | 191 to 193 | < 0.1 | **** (an EC1.5x≤0.3 μM is indicated by four stars (****)) | ***** (a fold increase >1.65 is indicated by five stars (*****)) |
| Cc1nc2cc(-c3cc(=O)n4cc(N5CCN[C@@H](C)C5)ccc4n3)ccc2s1 [Compound 135, 2-(2-methyl-1,3-benzothiazol-5-yl)-7-[(3S)-3-methylpiperazin-1-yl]-4H-pyrido[1,2-a]pyrimidin-4-one] | 174 to 180 | < 0.1 | **** (an EC1.5x≤0.3 μM is indicated by four stars (****)) | **** (a fold increase between >1.5 and ≤1.65 is indicated by four stars (****)) |

Now from value to compound, other results behind:

| melting point [°C] | SMILES | EC (1.5-fold increase) [1] [µM] | EC1.5x for Smn protein expression [2] | maximum fold (Fold) increase of Smn protein [2] |
| --- | --- | --- | --- | --- |
| 189 to 192 | Cc1cn2cc(-c3cc(=O)n4cc(N5CCNCC5)ccc4n3)nc2c(C)n1 [Compound 118, 2-(6,8-dimethylimidazo[1,2-a]pyrazin-2-yl)-7-(piperazin-1-yl)-4H-pyrido[1,2-a]pyrimidin-4-one] | 0.1 to 0.3 | *** (an EC1.5× between >0.3 μM and ≤1 μM is indicated by three stars (***)) | ***** (a fold increase >1.65 is indicated by five stars (*****)) |
| 250 to 255 | O=c1cc(-c2ccc3nc(C(F)(F)F)cn3c2)nc2ccc(N3CCNCC3)cn12 [Compound 123, 7-(piperazin-1-yl)-2-[2-(trifluoromethyl)imidazo[1,2-a]pyridin-6-yl]-4H-pyrido[1,2-a]pyrimidin-4-one] | 1 to 3 |  | * (A maximum fold increase of ≤1.2 is indicated by one star (*)) |
| 228 to 232 | CCc1cn2cc(-c3cc(=O)n4cc(N5CCNCC5)ccc4n3)ccc2n1 [Compound 124, 2-(2-ethylimidazo[1,2-a]pyridin-6-yl)-7-(piperazin-1-yl)-4H-pyrido[1,2-a]pyrimidin-4-one] | 0.3 to 1 |  | ** (a fold increase between >1.2 and ≤1.35 is indicated by two stars (**)) |
| 236 to 240 | Cc1nc2ccc(-c3cc(=O)n4cc(N5CCNCC5)ccc4n3)cn2c1C [Compound 125, 2-(2,3-dimethylimidazo[1,2-a]pyridin-6-yl)-7-(piperazin-1-yl)-4H-pyrido[1,2-a]pyrimidin-4-one] | 0.3 to 1 |  | *** (a fold increase between >1.35 and ≤1.5 is indicated by three stars (***)) |
| 219 to 222 | Cc1nc2ccc(-c3cc(=O)n4cc(N5CCNCC5)ccc4n3)cc2o1 [Compound 133, 2-(2-methyl-1,3-benzoxazol-6-yl)-7-(piperazin-1-yl)-4H-pyrido[1,2-a]pyrimidin-4-one] | < 0.1 | **** (an EC1.5x≤0.3 μM is indicated by four stars (****)) | **** (a fold increase between >1.5 and ≤1.65 is indicated by four stars (****)) |
| 228 to 230 | Cc1nc2cc(-c3cc(=O)n4cc(N5CCNCC5)ccc4n3)ccc2s1 [Compound 136, 2-(2-methyl-1,3-benzothiazol-5-yl)-7-(piperazin-1-yl)-4H-pyrido[1,2-a]pyrimidin-4-one] | < 0.1 | **** (an EC1.5x≤0.3 μM is indicated by four stars (****)) | ***** (a fold increase >1.65 is indicated by five stars (*****)) |
